Measurements reported in patent US8946142B2, “Beta-arrestin effectors and compositions and methods of use thereof” (Trevena, Inc., priority 2012, dated 2015).
Where a SMILES comes first, the peptide text is derived from it. [ ]: non-standard residue; d: D form. Ac6c = NC1(C(=O)O)CCCCC1; Ac5c = NC1(C(=O)O)CCCC1; Sar = CNCC(=O)O

What was measured:
Format in all cases: cell-based
[1] = target: T1, human AT1R (Homo sapiens, UniProt P30556); assay: IP1 accumulation assay (IP1 G-protein assay), human AT1R; conditions: for Emax: read-out: Span (relative to hAngII)
T1 sequence (P30556 1-359): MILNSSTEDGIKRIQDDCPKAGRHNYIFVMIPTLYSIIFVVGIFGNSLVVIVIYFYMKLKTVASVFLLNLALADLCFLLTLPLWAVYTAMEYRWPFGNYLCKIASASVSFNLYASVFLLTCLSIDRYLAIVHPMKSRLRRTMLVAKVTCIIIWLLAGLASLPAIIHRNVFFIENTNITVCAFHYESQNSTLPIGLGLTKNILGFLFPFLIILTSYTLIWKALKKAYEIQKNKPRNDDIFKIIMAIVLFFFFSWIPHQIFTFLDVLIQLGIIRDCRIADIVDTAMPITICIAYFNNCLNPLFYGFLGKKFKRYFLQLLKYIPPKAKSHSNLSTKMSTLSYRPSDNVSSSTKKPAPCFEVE
Experimental: (§1) A secondary measure of G protein coupling efficacy was also performed. IP3 is generated by activation of phospholipase C by Gα-q. IP3 is degraded to IP1, which can be forced to accumulate in cells by blocking degradation with lithium chloride. Thus we measured accumulation of IP1 to determine ligand efficacy for G protein activation.
(§2) IP1 accumulation generated by human and rat angiotensin 2 type 1 receptor (human AT1R and rat AT1aR, respectively) was measured with IP-One Tb kits purchased from Cisbio and used per the manufacturer's instructions. Clonal stably transfected cell lines expressing human AT1TR or rat AT1aR were used for all experiments.
(§3) For assays, 4,000-8,000 cells were seeded per well in 384-well small-volume microplates “HiBase” small-volume plate in volumes of 20 uL and allowed to grow overnight at 37° C. in 5% CO2. Cell growth media was then replaced with stimulation buffer supplied by Cisbio containing 50 mM lithium chloride. […] For agonist detection, peptides were then further diluted in stimulation buffer to add peptide to the cells to reach final concentrations ranging from 100 uM to 1 pM. Following addition of peptides, cells were incubated at 37° C. in 5% CO2 for 30 minutes and then lysed with 4 uL of pre-mixed HTRF IP-One reagents diluted per manufacturer's instructions (Cisbio). Microplates were incubated for 60-90 minutes at room temperature and then time-resolved fluorescence intensities were measured using a PHERAstar Plus microplate reader from BMG Labtech. IP1 accumulation was measured as change in ratio of time-resolved fluorescent intensities measured at 665 nm and 620 nm.

[2] = target: T2, rat AT1aR (Rattus norvegicus, UniProt P25095); assay: IP1 accumulation assay (IP1 G-protein assay), rat AT1aR; conditions: for Emax: read-out: Span (relative to hAngII)
T2 sequence (P25095 1-359): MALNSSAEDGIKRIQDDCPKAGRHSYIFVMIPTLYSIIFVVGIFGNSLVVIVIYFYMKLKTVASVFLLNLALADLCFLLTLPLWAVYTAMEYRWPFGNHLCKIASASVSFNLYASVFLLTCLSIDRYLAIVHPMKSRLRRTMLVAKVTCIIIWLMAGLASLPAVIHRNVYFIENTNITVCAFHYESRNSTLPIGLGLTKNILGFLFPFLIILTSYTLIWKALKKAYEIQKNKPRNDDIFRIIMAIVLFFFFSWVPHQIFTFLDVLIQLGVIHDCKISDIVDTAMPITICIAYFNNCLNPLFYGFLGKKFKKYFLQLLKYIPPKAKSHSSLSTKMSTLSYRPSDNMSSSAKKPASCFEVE
Experimental: as §1, §2, §3

[3] = target: T2, rat AT1aR; assay: beta-arrestin2 recruitment assay (PathHunter), rat AT1aR; conditions: for Emax: 1 h, read-out: Span (relative to hAngII)
Experimental: (§4) The proximal event in β-arrestin function mediated by GPCRs is recruitment to receptors following ligand binding and receptor phosphorylation by GRK's. Thus, the measure of β-arrestin recruitment was used to determine ligand efficacy for β-arrestin function.
(§5) B-arrestin-2 recruitment to the human and rat angiotensin 2 type 1 receptor (human AT1R and rat AT1aR, respectively) was measured with the PathHunter™ μl-arrestin assay (DiscoveRx Corporation, Fremont Calif.). Cells, plasmid(s), and detection reagent(s) were purchased from DiscoveRx, and assays were performed per manufacturer's instructions. Human AT1R and rat AT1aR were cloned into the pCMV-ProLink vector, verified by sequencing, and transfected into PathHunter β-arrestin HEK293 cells. Stably transfected clonal cell lines were selected with Hygromycin and G418. These clonal cell lines were used for all experiments.
(§6) For assays, 4,000-8,000 cells were seeded per well in 384-well microplates “HiBase” small-volume plate in volumes of 20 uL and grown overnight in the incubator (37° C., 5% CO2, saturated humidity). Peptides were dissolved in DMSO to a concentration of 10 mM. Peptides were then further diluted in assay buffer (Hank's balanced salt solution with 20 mM HEPES) to add peptide to the cells to reach final concentrations ranging from 100 μM to 1 pM. Cells were then incubated for 60 minutes at 37° C. in 5% CO2, followed by addition of 2 μL of PathHunter Detection Reagent to each well. The microplates were then incubated at room temperature for 60 minutes, and then luminescence was measured using a PHERAstar Plus microplate reader from BMG Labtech. B-arrestin-2 recruitment to receptors was measured as relative luminescence intensity expressed in arbitrary units.

[4] = target: T1, human AT1R; assay: beta-arrestin2 recruitment assay (PathHunter), human AT1R; conditions: for Emax: 1 h, read-out: Span (relative to hAngII)
Experimental: as §4, §5, §6

SMILES	EC50 (nM) [1]	pEC50 [1]	EC50 (nM) [2]	pEC50 [2]	Emax [3] [%]	EC50 ([3]; read-out: EC50) [nM]	EC50 ([3]; read-out: pEC50 (converted)) [nM]	Emax [4] [%]	EC50 ([4]; read-out: EC50) [nM]	EC50 ([4]; read-out: pEC50 (converted)) [nM]	EC50 ([1]; read-out: EC50) [nM]	Emax [1] [%]	EC50 ([1]; read-out: pEC50 (converted)) [nM]	EC50 ([2]; read-out: EC50) [nM]	Emax [2] [%]	EC50 ([2]; read-out: pEC50 (converted)) [nM]
CNCC(=O)N[C@@H](CCCNC(=N)N)C(=O)N[C@H](C(=O)N[C@@H](Cc1ccc(O)cc1)C(=O)NC1(C(=O)N[C@@H](Cc2c[nH]cn2)C(=O)N2CCC[C@H]2C(=O)N[C@H](C)C(=O)O)CCCCC1)C(C)C [SEQ ID NO: 57, Sar-Arg-Val-Tyr-cyHex-His-Pro-D-Ala]	Inactive	Inactive	Inactive	Inactive	< 105	> 3.2	> 3.16	< 101	> 3.2	> 3.16						
CNCC(=O)N[C@@H](CCCNC(=N)N)C(=O)N[C@H](C(=O)N[C@@H](Cc1ccc(O)cc1)C(=O)NC1(C(=O)N[C@@H](Cc2c[nH]cn2)C(=O)N2CCC[C@H]2C(=O)N2CCC[C@H]2C(=O)O)CCCCC1)C(C)C [SEQ ID NO: 39, Sar-Arg-Val-Tyr-cyHex-His-Pro-Pro] (H-[Sar]RVY[Ac6c]HPP-OH)					< 105	> 3.2	> 3.16	< 101	> 3.2	> 3.16	> 1.3	< 103	> 0.631	> 0.6	< 104	> 0.631
CC[C@H](C)[C@H](NC(=O)[C@@H]1CCCN1C(=O)[C@H](Cc1c[nH]cn1)NC(=O)C1(NC(=O)[C@H](Cc2ccc(O)cc2)NC(=O)[C@@H](NC(=O)[C@H](CCCNC(=N)N)NC(=O)CNC)C(C)C)CCCCC1)C(=O)O [SEQ ID NO: 11, Sar-Arg-Val-Tyr-cyHex-His-Pro-Ile] (H-[Sar]RVY[Ac6c]HPI-OH)					< 105	> 3.2	> 3.16	< 101	> 3.2	> 3.16	> 1.3	< 103	> 0.631	> 0.6		> 0.631
CNCC(=O)N[C@@H](CCCNC(=N)N)C(=O)N[C@H](C(=O)N[C@@H](Cc1ccc(O)cc1)C(=O)NC1(C(=O)N[C@@H](Cc2c[nH]cn2)C(=O)N2CCC[C@H]2C(=O)N[C@@H](CCSC)C(=O)O)CCCC1)C(C)C [SEQ ID NO: 23, Sar-Arg-Val-Tyr-cyPen-His-Pro-Met] (H-[Sar]RVY[Ac5c]HPM-OH)					< 105	> 3.2	> 3.16	< 101	> 3.2	> 3.16	> 1.3	< 103	> 0.631	> 0.6	< 104	> 0.631
CNCC(=O)N[C@@H](CCCNC(=N)N)C(=O)N[C@H](C(=O)N[C@@H](Cc1ccc(O)cc1)C(=O)NC1(C(=O)N[C@@H](Cc2c[nH]cn2)C(=O)N2CCC[C@H]2C(=O)N[C@@H](CC(C)C)C(=O)O)CCCC1)C(C)C [SEQ ID NO: 19, Sar-Arg-Val-Tyr-cyPen-His-Pro-Leu] (H-[Sar]RVY[Ac5c]HPL-OH)					< 105	> 3.2	> 3.16	< 101	> 3.2	> 3.16	> 1.3	< 103	> 0.631	> 0.6		> 0.631
